Assay results as given in patent US8598365B2, “Herbicides” (Syngenta Limited, priority 2007, dated 2013).

Columns and labels:
Assay type in all cases: in vivo
Setaria faberi (SETFA) [1] = assay: Example B post-emergence herbicidal activity; conditions: 312 h, evaluated after 13 days, read-out: Post-emergence activity SETFA (100=total damage to plant; 0=no damage to plant); for pest or weed control at 250 g/ha: rate 250 g/ha
How it was run: (§1)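 Visual injury score (0 none to 100 total) taken 13 days after spraying. Treatment was applied pre-emergence at day 1 or post-emergence at day 8, using acetone/water 50:50 containing 0.5% Tween 20.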

[2] = tested on: Amaranthus retoflexus (AMARE); assay: Example B post-emergence herbicidal activity; conditions: Amaranthus retroflexus, 312 h, evaluated after 13 days, read-out: Post-emergence activity AMARE (100=total damage to plant; 0=no damage to plant); for pest or weed control at 250 g/ha: rate 250 g/ha
How it was run: as §1

Avena fatua (AVEFA) [3] = assay: Example B post-emergence herbicidal activity; conditions: 312 h, evaluated after 13 days, read-out: Post-emergence activity AVEFA (100=total damage to plant; 0=no damage to plant); for pest or weed control at 250 g/ha: rate 250 g/ha
How it was run: as §1

[4] = tested on: Echinochloa crus-galli (ECHCG); assay: Example B post-emergence herbicidal activity; conditions: 312 h, evaluated after 13 days, read-out: Post-emergence activity ECHCG (100=total damage to plant; 0=no damage to plant); for pest or weed control at 250 g/ha: rate 250 g/ha
How it was run: as §1

[5] = tested on: Alopecurus myosuroides (ALOMY); assay: Example B post-emergence herbicidal activity; conditions: 312 h, evaluated after 13 days, read-out: Post-emergence activity ALOMY (100=total damage to plant; 0=no damage to plant); for pest or weed control at 250 g/ha: rate 250 g/ha
How it was run: as §1

Setaria faberi (SETFA) [6] = assay: Example B pre-emergence herbicidal activity; conditions: 312 h, evaluated after 13 days, read-out: Pre-Emergence Activity SETFA (100=total damage to plant; 0=no damage to plant); for pest or weed control at 250 g/ha: rate 250 g/ha
Protocol: (§2) Seeds of a variety of test species were sown in standard soil in pots. After cultivation for one day (pre-emergence) or after 8 days cultivation (post-emergence) under controlled conditions in a glasshouse (at 24/16° C., day/night; 14 hours light; 65% humidity), the plants were sprayed with an aqueous spray solution derived from the formulation of the technical active ingredient in acetone/water (50:50) solution containing 0.5% Tween 20 (polyoxyethelyene sorbitan monolaurate, CAS RN 9005-64-5).
(§3) The test plants were then grown in a glasshouse under controlled conditions in a glasshouse (at 24/16° C., day/night; 14 hours light; 65% humidity) and watered twice daily. After 13 days for pre and post-emergence, the test was evaluated (100=total damage to plant; 0=no damage to plant).
(§4) Alopecurus myosuroides (ALOMY), Avena fatua (AVEFA), Setaria faberi (SETFA), Echinochloa crus-galli (ECHCG), Solanum nigrum (SOLNI) and Amaranthus retoflexus (AMARE)

[7] = tested on: Amaranthus retoflexus (AMARE); assay: Example B pre-emergence herbicidal activity; conditions: Amaranthus retroflexus, 312 h, evaluated after 13 days, read-out: Pre-Emergence Activity AMARE (100=total damage to plant; 0=no damage to plant); for pest or weed control at 250 g/ha: rate 250 g/ha
Protocol: as §2, §3, §4

Avena fatua (AVEFA) [8] = assay: Example B pre-emergence herbicidal activity; conditions: 312 h, evaluated after 13 days, read-out: Pre-Emergence Activity AVEFA (100=total damage to plant; 0=no damage to plant); for pest or weed control at 250 g/ha: rate 250 g/ha
Protocol: as §2, §3, §4

[9] = tested on: Echinochloa crus-galli (ECHCG); assay: Example B pre-emergence herbicidal activity; conditions: 312 h, evaluated after 13 days, read-out: Pre-Emergence Activity ECHCG (100=total damage to plant; 0=no damage to plant); for pest or weed control at 250 g/ha: rate 250 g/ha
Protocol: as §2, §3, §4

[10] = tested on: Alopecurus myosuroides (ALOMY); assay: Example B pre-emergence herbicidal activity; conditions: 312 h, evaluated after 13 days, read-out: Pre-Emergence Activity ALOMY (100=total damage to plant; 0=no damage to plant); for pest or weed control at 250 g/ha: rate 250 g/ha
Protocol: as §2, §3, §4

`Cc1ccc(-c2nc(C3C(=O)[C@@H]4CC[C@@H](C4)C3=O)c(C)s2)cc1Cl` (stereo partly shown) [Compound T10] was tested, and the pest or weed control at 250 g/ha (Setaria faberi (SETFA) [1]) was 70%, the pest or weed control at 250 g/ha [2] was 0% and the pest or weed control at 250 g/ha (Avena fatua (AVEFA) [3]) was 0%. For the same molecule, the pest or weed control at 250 g/ha [4] was 70%, the pest or weed control at 250 g/ha [5] was 20% and the pest or weed control at 250 g/ha (Setaria faberi (SETFA) [6]) was 20%. For the same molecule, the pest or weed control at 250 g/ha [7] was 0%, the pest or weed control at 250 g/ha (Avena fatua (AVEFA) [8]) was 0% and the pest or weed control at 250 g/ha [9] was 60%. The pest or weed control at 250 g/ha [10] was 20%.
`Cc1ccc(-c2nc(C3C(=O)[C@@H]4CC[C@@H](C4)C3=O)c(C)s2)cc1` (stereo partly shown) [Compound T11] gave a pest or weed control at 250 g/ha (Setaria faberi (SETFA) [1]) of 80%, a pest or weed control at 250 g/ha [2] of 0% and a pest or weed control at 250 g/ha (Avena fatua (AVEFA) [3]) of 40%. It also gave a pest or weed control at 250 g/ha [4] of 100%, a pest or weed control at 250 g/ha [5] of 90% and a pest or weed control at 250 g/ha (Setaria faberi (SETFA) [6]) of 0%. It also gave a pest or weed control at 250 g/ha [7] of 0%, a pest or weed control at 250 g/ha (Avena fatua (AVEFA) [8]) of 0% and a pest or weed control at 250 g/ha [9] of 70%. The pest or weed control at 250 g/ha [10] was 40%.
`Cc1sc(-c2ccc(Cl)cc2F)nc1C1C(=O)[C@@H]2CC[C@@H](C2)C1=O` (stereo partly shown) [Compound T13] gave a pest or weed control at 250 g/ha (Setaria faberi (SETFA) [1]) of 100%, a pest or weed control at 250 g/ha [2] of 0% and a pest or weed control at 250 g/ha (Avena fatua (AVEFA) [3]) of 90%. For the same molecule, the pest or weed control at 250 g/ha [4] was 100%, the pest or weed control at 250 g/ha [5] was 100% and the pest or weed control at 250 g/ha (Setaria faberi (SETFA) [6]) was 100%. It also gave a pest or weed control at 250 g/ha [7] of 0%, a pest or weed control at 250 g/ha (Avena fatua (AVEFA) [8]) of 40% and a pest or weed control at 250 g/ha [9] of 100%. For the same molecule, the pest or weed control at 250 g/ha [10] was 90%.
Work on `Cc1cc(Cl)ccc1-c1nc(C2C(=O)[C@@H]3CC[C@@H](C3)C2=O)c(C)s1` (stereo partly shown) [Compound T14] yielded a pest or weed control at 1000 g/ha (Setaria faberi (SETFA) [1]; rate 1000 g/ha) of 100%, a pest or weed control at 1000 g/ha ([2]; rate 1000 g/ha) of 20% and a pest or weed control at 1000 g/ha (Avena fatua (AVEFA) [3]; rate 1000 g/ha) of 90%. It also gave a pest or weed control at 1000 g/ha ([4]; rate 1000 g/ha) of 100%, a pest or weed control at 1000 g/ha ([5]; rate 1000 g/ha) of 90% and a pest or weed control at 1000 g/ha (Setaria faberi (SETFA) [6]; rate 1000 g/ha) of 70%. For the same molecule, the pest or weed control at 1000 g/ha ([7]; rate 1000 g/ha) was 0%, the pest or weed control at 1000 g/ha (Avena fatua (AVEFA) [8]; rate 1000 g/ha) was 80% and the pest or weed control at 1000 g/ha ([9]; rate 1000 g/ha) was 90%. For the same molecule, the pest or weed control at 1000 g/ha ([10]; rate 1000 g/ha) was 30%.
`CCc1sc(-c2ccc(Cl)c(C)c2)nc1C1C(=O)[C@@H]2CC[C@@H](C2)C1=O` (stereo partly shown) [Compound T20] showed a pest or weed control at 250 g/ha (Setaria faberi (SETFA) [1]) of 90%, a pest or weed control at 250 g/ha [2] of 0% and a pest or weed control at 250 g/ha (Avena fatua (AVEFA) [3]) of 90%. It also gave a pest or weed control at 250 g/ha [4] of 100%, a pest or weed control at 250 g/ha [5] of 90% and a pest or weed control at 250 g/ha (Setaria faberi (SETFA) [6]) of 40%. For the same molecule, the pest or weed control at 250 g/ha [7] was 0%, the pest or weed control at 250 g/ha (Avena fatua (AVEFA) [8]) was 0% and the pest or weed control at 250 g/ha [9] was 70%. For the same molecule, the pest or weed control at 250 g/ha [10] was 50%.
`CCc1sc(-c2ccc(Cl)c(Cl)c2)nc1C1C(=O)[C@@H]2CC[C@@H](C2)C1=O` (stereo partly shown) [Compound T22] gave a pest or weed control at 250 g/ha (Setaria faberi (SETFA) [1]) of 90%, a pest or weed control at 250 g/ha [2] of 0% and a pest or weed control at 250 g/ha (Avena fatua (AVEFA) [3]) of 90%. It also gave a pest or weed control at 250 g/ha [4] of 90%, a pest or weed control at 250 g/ha [5] of 90% and a pest or weed control at 250 g/ha (Setaria faberi (SETFA) [6]) of 100%. The pest or weed control at 250 g/ha [7] was 20%, the pest or weed control at 250 g/ha (Avena fatua (AVEFA) [8]) was 20% and the pest or weed control at 250 g/ha [9] was 80%. For the same molecule, the pest or weed control at 250 g/ha [10] was 70%.
For `CCc1sc(-c2ccc(Cl)cc2F)nc1C1C(=O)[C@@H]2CC[C@@H](C2)C1=O` (stereo partly shown) [Compound T26], the pest or weed control at 250 g/ha (Setaria faberi (SETFA) [1]) was 100%, the pest or weed control at 250 g/ha [2] was 40% and the pest or weed control at 250 g/ha (Avena fatua (AVEFA) [3]) was 100%. The pest or weed control at 250 g/ha [4] was 100%, the pest or weed control at 250 g/ha [5] was 100% and the pest or weed control at 250 g/ha (Setaria faberi (SETFA) [6]) was 100%. The pest or weed control at 250 g/ha [7] was 0%, the pest or weed control at 250 g/ha (Avena fatua (AVEFA) [8]) was 60% and the pest or weed control at 250 g/ha [9] was 100%. It also gave a pest or weed control at 250 g/ha [10] of 90%.
